Results published in ChEMBL document CHEMBL1151591, “Structure-activity relationship of novel tallimustine derivatives: synthesis and antitumor activity” (Bioorg Med Chem Lett, 1996).

Columns and labels:
[1] = system: L1210; assay: In vitro inhibition of L1210 murine leukemia (Drug sensitivity was determined by counting surviving cells after 48 hr of continuous exposure to at least 4 conc. of drug); type: functional, cell-based; details: Mus musculus, L1210, 48 h
[2] = system: Mus musculus; assay: In vivo inhibition of L1210 murine leukemia, expressed as optimal dose (CDF21 mice were given an injection of 105 cells i.p. and treated on day 1); type: functional
[3] = system: Mus musculus; assay: In vivo cytotoxicity against L1210 murine leukemia, expressed as median survival time of treated vs. untreated mice X 100 (CDF21 mice were given an injection of 105 cells i.p. and treated on day 1); type: functional

SMILES | IC50 [1] [mg/L] | Optimal dose [2] [mg/kg] | T/C [3] [%]
C=C(Br)C(=O)Nc1nc(C(=O)Nc2cc(C(=O)Nc3cc(C(=O)NCCC(=N)N)n(C)c3)n(C)c2)cs1.Cl | 23.8 |  | 
Cl.Cn1cc(NC(=O)c2cc(NC(=O)c3cc(NC(=O)c4ccc(N(CCCl)CCCl)cc4)nn3C)cn2C)cc1C(=O)NCCC(=N)N | 1.39 | 12.5 | 118
Cl.Cn1cc(NC(=O)c2ccc(N(CCCl)CCCl)cc2)cc1C(=O)Nc1cc(C(=O)Nc2cc(C(=O)NCCC(=N)N)n(C)n2)n(C)c1 | 0.03 | 6.25 | 213
Cl.Cn1cc(NC(=O)c2csc(NC(=O)c3ccc(N(CCCl)CCCl)cc3)n2)cc1C(=O)Nc1cc(C(=O)NCCC(=N)N)n(C)n1 | 7.2 |  | 
Cl.Cn1cc(NC(=O)c2ccc(N(CCCl)CCCl)cc2)cc1C(=O)Nc1cc(C(=O)Nc2cc(C(=O)NCCC(=N)N)n(C)n2)n(C)n1 | 0.11 | 25 | 259
C=C(Br)C(=O)Nc1cc(C(=O)Nc2cc(C(=O)Nc3cc(C(=O)NCCC(=N)N)n(C)c3)n(C)c2)n(C)n1.Cl | 0.15 | 30 | 181
Cl.Cn1cc(NC(=O)c2cc(NC(=O)c3csc(NC(=O)c4ccc(N(CCCl)CCCl)cc4)n3)cn2C)cc1C(=O)NCCC(=N)N | 32.5 |  | 
Cl.Cn1cc(NC(=O)c2cc(NC(=O)c3cc(NC(=O)c4ccc(N(CCCl)CCCl)cc4)cn3C)cn2C)cc1C(=O)NCCC(=N)N [TALLIMUSTINE CHLORIDE] |  | 3.13 | 175
